Results: patent publication US7420001B2 (Wyeth, priority 2003, dated 2008)
Where two headings read alike, the source gives them in different places.

How the values were obtained:
MMP-13 = molecular target: T1, MMP-13 (Homo sapiens, UniProt P45452); assay: In-vitro fluorescence assay of MMP-13 activity; format: biochemical
T1 construct: made in house

MMP-14 = molecular target: T2, MMP-14 (Homo sapiens, UniProt P50281); assay: In-vitro fluorescence assay of MMP-14 activity; format: biochemical
T2 construct: 20 kDa; purchased Chemicon International, Inc. CC 1041

MMP-2 = molecular target: T3, MMP-2 (Homo sapiens, UniProt P08253); assay: In-vitro fluorescence assay of MMP-2 activity; format: biochemical; conditions: recombinant human MMP-2; read-out: MMP-2 IC50
T3 construct: purchased Oncogene Research Products (Calbiochem) PF023
T3 sequence (P08253 110-660): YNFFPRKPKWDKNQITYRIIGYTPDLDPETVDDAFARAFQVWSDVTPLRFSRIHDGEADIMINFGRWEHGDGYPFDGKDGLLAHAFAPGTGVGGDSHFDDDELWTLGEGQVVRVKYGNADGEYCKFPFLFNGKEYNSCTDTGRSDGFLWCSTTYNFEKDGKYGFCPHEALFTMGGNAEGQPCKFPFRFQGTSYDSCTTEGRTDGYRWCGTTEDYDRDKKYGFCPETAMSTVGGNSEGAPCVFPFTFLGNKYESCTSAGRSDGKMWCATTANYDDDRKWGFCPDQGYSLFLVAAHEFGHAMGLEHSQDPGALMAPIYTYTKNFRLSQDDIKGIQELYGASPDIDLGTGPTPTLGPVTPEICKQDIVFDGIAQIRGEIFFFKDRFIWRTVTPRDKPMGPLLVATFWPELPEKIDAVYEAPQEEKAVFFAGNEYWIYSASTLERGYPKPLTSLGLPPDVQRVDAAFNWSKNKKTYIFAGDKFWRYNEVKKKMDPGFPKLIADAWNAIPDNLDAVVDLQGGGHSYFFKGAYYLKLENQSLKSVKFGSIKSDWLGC

MMP-1 = molecular target: T4, MMP-1 (Homo sapiens, UniProt P03956)
T4 sequence (P03956 100-269 limits assumed): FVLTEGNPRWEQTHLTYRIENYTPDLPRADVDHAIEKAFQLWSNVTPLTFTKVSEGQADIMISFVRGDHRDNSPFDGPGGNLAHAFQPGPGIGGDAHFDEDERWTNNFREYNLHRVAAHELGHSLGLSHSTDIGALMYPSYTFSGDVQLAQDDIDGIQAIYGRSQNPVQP

MMP-12 = molecular target: T5, MMP-12 (Homo sapiens, UniProt P39900); assay: In vitro fluorescence assay of MMP-12 activity; format: biochemical; conditions: recombinant human MMP-12
T5 construct: made in house
T5 sequence (P39900 106-280 limits assumed): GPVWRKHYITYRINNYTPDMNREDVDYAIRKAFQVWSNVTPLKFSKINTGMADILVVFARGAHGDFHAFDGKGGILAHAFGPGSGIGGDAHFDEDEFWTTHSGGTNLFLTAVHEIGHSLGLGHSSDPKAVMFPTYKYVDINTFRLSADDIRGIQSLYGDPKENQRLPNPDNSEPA

[1] = recombinant human catalytic domain of MMP-13, read-out: MMP-13 IC50
[2] = recombinant human catalytic domain of MMP-14

| Structure (SMILES) | IC50 (MMP-13; [1]) | IC50 (MMP-14; [2]) | IC50 (MMP-2) | IC50 (MMP-1) | IC50 (MMP-12) | IC50 (MMP-13; MMP-13 IC50, recombinant human catalytic domain of MMP-13) | IC50 (MMP-14) | IC50 (MMP-1; read-out: MMP-1 IC50, recombinant human catalytic domain of MMP-1) |
| --- | --- | --- | --- | --- | --- | --- | --- | --- |
| Cc1c(C(=O)Nc2ccc(-c3ccc(S(=O)(=O)N[C@H](C(=O)O)C(C)C)cc3)cc2)oc2ccccc12 [Example 83, N-[(4′-{[(3-Methyl-1-benzofuran-2-yl)carbonyl]amino}-1,1′-biphenyl-4-yl)sulfonyl]-L-valine] | 5.9 nM | 12400 nM | 259 nM | 24300 nM |  |  |  |  |
| CC(C)[C@H](NS(=O)(=O)c1ccc(-c2ccc(NC(=O)c3ccco3)cc2)cc1)C(=O)O [Example 175, (S)-2-{4′-[(Furan-2-carbonyl)-amino]-biphenyl-4-sulfonylamino}-3-methyl-butyric acid] | 11 nM | 2910 nM | 5.7 nM | 3090 nM |  |  |  |  |
| COc1cccc2oc(C(=O)Nc3ccc(-c4ccc(S(=O)(=O)N[C@H](C(=O)O)C(C)C)cc4)cc3)c(C)c12 [Example 105, (S)-2-{4′-[(4-Methoxy-3-methyl-benzofuran-2-carbonyl)-amino]-biphenyl-4-sulfonylamino}-3-methyl-butyric acid] | 9.5 nM |  | 1050 nM |  | 60 nM |  |  |  |
| Cc1c(C(=O)Nc2ccc(-c3ccc(S(=O)(=O)N[C@H](C(=O)O)C(C)C)cc3)cc2)oc2cccc(NS(C)(=O)=O)c12 [Example 36, L-2-{4′-[(4-Methanesulfonylamino-3-methyl-benzofuran-2-carbonyl)-amino]-biphenyl-4-sulfonylamino}-3-methyl-butyric acid] | 11 nM |  | 2250 nM |  | 126 nM |  |  |  |
| CC(C)[C@@H](NS(=O)(=O)c1ccc(-c2ccc(OC(=O)c3cc4ccccc4o3)cc2)cc1)C(=O)O [Example 135, Benzofuran-2-carboxylic acid 4′-(1-carboxy-2-methyl-propylsulfamoyl)-biphenyl-4-yl ester] | 0.5 nM | 2000 nM | 0.7 nM | 20000 nM |  |  |  |  |
| CC(C)[C@@H](NS(=O)(=O)c1ccc(-c2ccc(NC(=O)c3nc4ccccc4s3)cc2)cc1)C(=O)O [Example 152, D-2-{4′-[(Benzothiazole-2-carbonyl)-amino]-biphenyl-4-sulfonylamino}-3-methyl-butyric acid] | 0.7 nM |  |  |  | 1.1 nM |  |  |  |
| Cc1c(C(=O)Nc2ccc(-c3ccc(S(=O)(=O)N[C@H](C(=O)O)C(C)C)cc3)cc2)oc2cccc(-c3ccccc3)c12 [Example 109, (S)-3-Methyl-2-{4′-[(3-methyl-4-phenyl-benzofuran-2-carbonyl)-amino]-biphenyl-4-sulfonylamino}-butyric acid] |  | 7000 nM | 3650 nM | 11000 nM |  | 15 nM |  |  |
| CC(C)[C@@H](NS(=O)(=O)c1ccc(-c2ccc(OCc3cc4ccccc4o3)cc2)cc1)C(=O)O [Example 141, D-2-[4′-(Benzofuran-2-ylmethoxy)-biphenyl-4-sulfonylamino]-3-methyl-butyric acid] | 1.1 nM | 500 nM | 2.5 nM |  |  |  |  |  |
| CC(C)[C@H](NS(=O)(=O)c1ccc(-c2ccc(NC(=O)c3csc(-c4ccncc4)n3)cc2)cc1)C(=O)O [Example 169, (S)-3-Methyl-2-{4′-[(2-pyridin-4-yl-thiazole-4-carbonyl)-amino]-biphenyl-4-sulfonylamino}-butyric acid] | 75 nM | 40000 nM | 1190 nM | 40400 nM |  |  |  |  |
| COc1c(Br)ccc2oc(C(=O)Nc3ccc(-c4ccc(S(=O)(=O)N[C@H](C(=O)O)C(C)C)cc4)cc3)c(C)c12 [Example 118, (S)-2-{4′-[(5-bromo-4-methoxy-3-methyl-benzofuran-2-carbonyl)-amino]-biphenyl-4-sulfonylamino}-3-methyl-butyric acid] | 2.3 nM |  | 1700 nM |  |  |  | 14600 nM | 30000 nM |
| O=C(O)CNS(=O)(=O)c1ccc(-c2ccc(NC(=O)c3cc4ccccc4o3)cc2)cc1 [Example 1, N-({4′-[(1-benzofuran-2-ylcarbonyl)amino]-1,1′-biphenyl-4-yl}sulfonyl)glycine] | 35 nM | 13900 nM | 47 nM |  |  |  |  |  |
| Cc1cc(C(=O)Nc2ccc(-c3ccc(S(=O)(=O)N[C@H](C(=O)O)C(C)C)cc3)cc2)nn1-c1ccccc1 [Example 168, (S)-3-Methyl-2-{4′-[(5-methyl-1-phenyl-1H-pyrazole-3-carbonyl)-amino]-biphenyl-4-sulfonylamino}-butyric acid] | 99 nM | 36000 nM | 1290 nM | 60000 nM |  |  |  |  |

More lines, in order of falling IC50 (MMP-13; [1]), values ahead:

| IC50 (MMP-13; [1]) | IC50 (MMP-14; [2]) | IC50 (MMP-2) | IC50 (MMP-1) | IC50 (MMP-12) | IC50 (MMP-13; MMP-13 IC50, recombinant human catalytic domain of MMP-13) | Structure (SMILES) | IC50 (MMP-14) | IC50 (MMP-1; read-out: MMP-1 IC50, recombinant human catalytic domain of MMP-1) |
| --- | --- | --- | --- | --- | --- | --- | --- | --- |
| 40 nM | 24000 nM | 35 nM | 500000 nM |  |  | CN(CC(=O)O)S(=O)(=O)c1ccc(-c2ccc(NC(=O)c3cc4ccccc4o3)cc2)cc1 [Example 79, N-({4′-[(1-Benzofuran-2-ylcarbonyl)amino]-1,1′-biphenyl-4-yl}sulfonyl)-N-methylglycine] |  |  |
| 25 nM | 6130 nM | 61 nM | 7400 nM |  |  | CC(C)[C@H](NS(=O)(=O)c1ccc(-c2ccc(NC(=O)c3cccs3)cc2)cc1)C(=O)O [Example 174, (S)-3-Methyl-2-{4′-[(thiophene-2-carbonyl)-amino]-biphenyl-4-sulfonylamino}-butyric acid] |  |  |
| 18 nM | > 60000 nM | 30 nM | > 10000 nM |  |  | CC(C)[C@@H](C(=O)O)N(CCN1CCOCC1)S(=O)(=O)c1ccc(-c2ccc(NC(=O)c3cc4ccccc4o3)cc2)cc1 [Example 82, N-({4′-[(1-Benzofuran-2-ylcarbonyl)amino]-1,1′-biphenyl-4-yl}sulfonyl)-N-(2-morpholin-4-ylethyl)-L-valine] |  |  |
| 17 nM | 20000 nM | 2400 nM | 49600 nM |  |  | Cc1c(C(=O)Nc2ccc(-c3ccc(S(=O)(=O)N[C@H](C(=O)O)C(C)C)cc3)cc2)oc2cccc(-c3cccc([N+](=O)[O-])c3)c12 [Example 110, (S)-3-Methyl-2-(4′-{[3-methyl-4-(3-nitro-phenyl)-benzofuran-2-carbonyl]-amino}-biphenyl-4-sulfonylamino)-butyric acid] |  |  |
| 16 nM |  | 1450 nM |  | 155 nM |  | Cc1c(C(=O)Nc2ccc(-c3ccc(S(=O)(=O)N[C@H](C(=O)O)C(C)C)cc3)cc2)oc2cccc(C#CCN(C)C)c12 [Example 31, L-2-(4′-{[4-(3-Dimethylamino-prop-1-ynyl)-3-methyl-benzofuran-2-carbonyl]-amino}-biphenyl-4-sulfonylamino)-3-methyl-butyric acid] |  |  |
| 13 nM | 29 nM | 93 nM | 28300 nM |  |  | Cc1c(C(=O)Nc2ccc(-c3ccc(S(=O)(=O)N[C@@H](C(=O)O)C(C)C)cc3)cc2)oc2ccccc12 [Example 74, D-3-Methyl-2-{4′-[(3-methyl-benzofuran-2-carbonyl)-amino]-biphenyl-4-sulfonylamino}-butyric acid] |  |  |
| 11 nM |  | 7110 nM |  | 187 nM |  | Cc1c(C(=O)Nc2ccc(-c3ccc(S(=O)(=O)N[C@H](C(=O)O)C(C)C)cc3)cc2)oc2cccc(OCC3CC3)c12 [Example 51, L-2-{4′-[(4-Cyclopropylmethoxy-3-methyl-benzofuran-2-carbonyl)-amino]-biphenyl-4-sulfonylamino}-3-methyl-butyric acid] |  |  |
| 5.7 nM | 7110 nM | 6 nM | 15000 nM |  |  | CC(C)[C@H](C(=O)O)N(C)S(=O)(=O)c1ccc(-c2ccc(NC(=O)c3cc4ccccc4o3)cc2)cc1 [Example 77, N-({4′-[(1-benzofuran-2-ylcarbonyl)amino]-1,1′-biphenyl-4-yl}sulfonyl)-N-methyl-D-valine] |  |  |
| 0.8 nM |  | 116 nM |  | 1.9 nM |  | Cc1ccc2oc(C(=O)Nc3ccc(-c4ccc(S(=O)(=O)N[C@H](C(=O)O)C(C)C)cc4)cc3)nc2c1 [Example 129, (S)-3-Methyl-2-{4′-[(5-methyl-benzooxazole-2-carbonyl)-amino]-biphenyl-4-sulfonylamino}-butyric acid] |  |  |
| 0.5 nM | 17000 nM | 14 nM | 40000 nM |  |  | CC(C)[C@H](NS(=O)(=O)c1ccc(-c2ccc(NC(=O)c3cc4c(ccc5ccccc54)o3)cc2)cc1)C(=O)O [Example 153, L-3-Methyl-2-{4′-[(naphtho[2,1-b]furan-2-carbonyl)-amino]-biphenyl-4-sulfonylamino}-butyric acid] |  |  |
